This is an account of results in US20190183960A1, “METHOD TO TREAT ASTHMA AND AIRWAY ALLERGY USING CYCLO TYROSINE-VALINE AND RELATED COMPOUNDS” (Chang Gung Biotechnology Corp., priority 2017, published 2019).

The test system of data set [1] is IL-4 secretion by Th2 cells. Nature of the data set: IL-4 secretion by Th2 cells derived from BALB/c mice (ELISA). Particulars: 3 days; for secretion of pro-inflammatory IL-4 by Th2 cells: 2.3 μM, vs vehicle (0.5% DMSO). It is filed as cell-based. On the procedure: Given that Th2 cells mediate the immunological effects of asthma in humans and animals, we tested the effects of cyclo Tyr-Val on Th2 cells in culture. Naive T cells were isolated from BALB/c mice, and the cells were incubated in a culture medium containing anti-CD3 antibody (2 μg/ml), anti-CD28 antibody (2 μg/ml), anti-interferon-γ (IFN-γ) antibody (10 μg/ml), and IL-4 (10 ng/ml) in order to induce T cell differentiation into Th2 cells. The Th2 cells were treated for 3 days with 2.3 μM of cyclo Tyr-Val, cyclo alanine-isoleucine (cyclo Ala-Ile), cyclo alanine-leucine (cyclo Ala-Leu), cyclo tyrosine-leucine (cyclo Tyr-Leu), cyclo alanine-phenylalanine (cyclo Ala-Phe), or cyclo tyrosine-isoleucine (cyclo Tyr-Ile), and IL-4 protein level was measured using an enzyme-linked immunosorbent assay (ELISA) kit (eBioscience, USA).
(§1) We confirmed that cyclo Tyr-Val inhibits IL-4 secretion by Th2 cells. Th2 cells isolated from BALB/c or C57BL/6J mice were either left untreated or treated for 3 days with the vehicle (0.5% DMSO in saline) or various concentrations of cyclo Tyr-Val, followed by detection of IL-4 production using ELISA.
(§2) The effects of cyclo Tyr-Val on the secretion of other pro-inflammatory cytokines were investigated. […] As shown in FIGS. 4A-4C, cyclo Tyr-Val inhibited not only the secretion of IL-4, but also that of IL-5 and IL-13.

For data set [2], the system named is OVA-induced asthmatic mice. Nature of the data set: OVA-induced airway hyperresponsiveness (Penh, whole-body plethysmography, methacholine). In kind it is in vivo, BALB/c mice. The settings on record: IP 0.11304-113.04 nmol/kg per day, day 21 to 27, methacholine 0-40 mg/ml. On the procedure: Given that asthma is characterized by hyperresponsiveness to airway stimulants, we examined the effect of cyclo Tyr-Val on AHR in the OVA-induced asthmatic mice stimulated with the exemplary antigen OVA and methacholine (Mch). BALB/c mice were treated intraperitoneally with 50 μg of OVA (Sigma, USA) mixed with 0.8 mg of aluminum hydroxide (Thermo Fischer Scientific, USA) on day 0, 1, 2, and 14, and treated with 2% OVA for 20 minutes using a nebulizer (Pulmo-Aide 5650D; DeVilbiss, USA) on day 14, 17, 21, 24, and 27. The OVA-induced asthmatic mice were intraperitoneally treated with the vehicle (0.5% DMSO in saline) or cyclo Tyr-Val at a dose of 0.11304, 1.1304, 11.304, or 113.04 nmol/kg of body weight per day on day 21 to 27. Airway resistance (Penh) was measured using a whole-body plethysmography (WBP) chamber (Buxco Electronics, USA) after stimulation with methacholine at doses of 0, 10, 20, 30, and 40 mg/ml.

In data set [3] the test system is IL-4 secretion by Th2 cells. Kind of data set: IL-4 secretion by Th2 cells derived from C57BL/6J mice (ELISA). It is filed as cell-based. Particulars: 3 days.
Description: as §1

The test system of data set [4] is IL-5 secretion by Th2 cells. Kind of data set: IL-5 secretion by Th2 cells derived from BALB/c mice (ELISA). In kind it is cell-based. Particulars: 0.25 μM, 3 days.
Description: as §2

Data set [5] relates to OVA-induced asthmatic mice. Kind of data set: Treatment after establishment of OVA-induced AHR, comparison with dexamethasone. It is filed as in vivo, BALB/c mice. The settings on record: IP 11.304 nmol/kg per day, day 28 to 34, after establishment of AHR. On the procedure:
In this example, the anti-asthmatic effect of cyclo Tyr-Val was compared with those of dexamethasone, a pharmaceutical drug conventionally used to treat asthma. OVA-induced asthmatic mice (BALB/c) were established according to the method described in Example 2. The mice were treated with 2% OVA using a nebulizer on day 30 and 33 and were intraperitoneally treated with the vehicle (0.5% DMSO in saline) or cyclo Tyr-Val (at a dose of 11.304 nmol/kg of body weight per day) on day 28 to 34, followed by measurement of AHR, total cell count in BALF, and eosinophil count in BALF. Another group of OVA-induced asthmatic mice that were treated orally with dexamethasone (at a dose of 3 mg/kg of body weight per day) on day 28 to 34 were used as a positive control.

The nature of data set [6]: Blood biochemical parameters (hepatic and renal functions) in mice. In kind it is in vivo. Particulars: IP 11.304 nmol/kg. The procedure:
The effects of cyclo Tyr-Val treatment on hepatic and renal functions in mice were evaluated to determine if the compound produces toxic side effects. For these experiments, saline-treated mice (control group) or OVA-induced asthmatic mice were intraperitoneally treated with the vehicle (0.5% DMSO in saline) or cyclo Tyr-Val (at a dose of 11.304 nmol/kg), followed by measurement of blood biochemical parameters, including levels of aspartate transaminase (AST), alanine transaminase (ALT), total bilirubin (T-BIL), albumin (ALB), blood urea nitrogen (BUN), creatinine (CREA), and uric acid (UA). The blood biochemical parameters were monitored using a Hitachi 7080 biochemical analyzer (Hitachi, Japan).

For data set [7], the system named is OVA-induced asthmatic mice. Kind of data set: Mode of administration (IP, inhalation, oral) in OVA-induced asthmatic mice. In kind it is in vivo, BALB/c mice. Particulars: 11.304 nmol/kg per day, 7 days. The procedure:
This example illustrates the effects of the mode of administration of cyclo Tyr-Val on asthmatic mice. OVA-induced asthmatic mice (BALB/c) were established according to the method described in Example 2. On day 21, the mice were treated intraperitoneally (IP), by inhalation (IH), or orally with cyclo Tyr-Val (at a dose of 11.304 nmol/kg of body weight per day) for 7 days, followed by assessment of AHR, total cell count in BALF, and eosinophil count in BALE OVA-induced asthmatic mice that were administered daily with the vehicle (0.5% DMSO in saline) intraperitoneally were used as control. As shown in FIGS. 9A-9C, treatment of OVA-induced asthmatic mice with cyclo Tyr-Val for 7 days via intraperitoneal injection, inhalation, or the oral route reduced AHR, total BALF cell count, and BALF eosinophil accumulation, compared with the vehicle-treated group.

A further data set concerns Th2 cells. Nature of the data set: Viability of Th2 cells (WST-1 kit). It is filed as cell-based, BALB/c mice. The settings on record: 0.018-285.932 μM, 3 days. The procedure: Experiments were performed to examine the effects of cyclo Tyr-Val on cell viability. Th2 cells isolated from BALB/c mice were either left untreated or treated for 3 days with the vehicle (0.5% DMSO in saline) or cyclo Tyr-Val at a concentration of 0.018, 0.091, 0.457, 2.287, 11.438, 57.186, or 285.932 μM. The viability of these cells was assessed using the WST-1 kit (Roche, Switzerland) according to the manufacturer's instructions.

For data set [8], the system named is IL-13 secretion by Th2 cells. Nature of the data set: IL-13 secretion by Th2 cells derived from BALB/c mice (ELISA). It is filed as cell-based. The settings on record: 0.25 μM, 3 days.
Description: as §2

Data set [9] deals with OVA-induced asthmatic mice. Kind of data set: IL-4, IL-5, IL-13 protein levels in BALF of OVA-induced asthmatic mice (ELISA). It is filed as in vivo, BALB/c mice. The settings on record: IP 0.11304-113.04 nmol/kg per day, day 21 to 27. The source says: (§3) Given that asthma is characterized by accumulation of immune cells including eosinophils in lung tissues, we studied the effects of cyclo Tyr-Val on BALF cell count, pro-inflammatory cytokine secretion, and antibody production. OVA-induced asthmatic mice (BALB/c) were established according to the method described in Example 2. After the mice were intraperitoneally treated with the vehicle (0.5% DMSO in saline) or cyclo Tyr-Val at a dose of 0.11304, 1.1304, 11.304, or 113.04 nmol/kg of body weight per day on day 21 to 27, BALF and serum were collected. Total cell count in BALF was determined using a hemocytometer; eosinophils were counted after isolation using Cytospin. Protein levels of IL-4, IL-5, and IL-13 in BALF were determined using ELISA. Serum protein levels of OVA-specific antibodies, including IgE, IgG1, and IgG2a, were determined using ELISA (eBioscience).

Data set [10] concerns OVA-induced asthmatic mice. Kind of data set: Serum OVA-specific antibodies in OVA-induced asthmatic mice (ELISA). It is filed as in vivo, BALB/c mice. The settings on record: IP 0.11304-113.04 nmol/kg per day, day 21 to 27.
Description: as §3

For data set [11], the system named is OVA-induced asthmatic mice. Kind of data set: BALF total cell and eosinophil count in OVA-induced asthmatic mice. In kind it is in vivo, BALB/c mice. The settings on record: IP 0.11304-113.04 nmol/kg per day, day 21 to 27.
Description: as §3

For the compound `CC[C@H](C)[C@@H]1NC(=O)[C@H](C)NC1=O` [cyclo Ala-Ile, cyclo alanine-isoleucine, reference compound], in [1], the “secretion of pro-inflammatory IL-4 by Th2 cells” value (from here on “secretion … by Th2 cells”) is recorded as “failed to inhibit IL-4 secretion”.

Take `CC(C)C[C@@H]1NC(=O)[C@H](C)NC1=O` [cyclo Ala-Leu, cyclo alanine-leucine, reference compound]: in data set [1], the “secretion … by Th2 cells” value was “failed to inhibit IL-4 secretion”.

Consider `CC1NC(=O)C(Cc2ccccc2)NC1=O` (stereo not shown) [cyclo Ala-Phe, cyclo alanine-phenylalanine, reference compound], for which the “secretion … by Th2 cells” value in data set [1] is given as “failed to inhibit IL-4 secretion”.

Regarding `CC[C@H](C)[C@@H]1NC(=O)[C@H](Cc2ccc(O)cc2)NC1=O` [cyclo Tyr-Ile, cyclo tyrosine-isoleucine, reference compound], the “secretion … by Th2 cells” value in data set [1] is “failed to inhibit IL-4 secretion”.

In the case of `CC(C)CC1NC(=O)C(Cc2ccc(O)cc2)NC1=O` (stereo not shown) [cyclo Tyr-Leu, cyclo tyrosine-leucine], the “secretion … by Th2 cells” value in data set [1] is “inhibited IL-4 to some extent”.

Turning to `CC(C)C1NC(=O)C(Cc2ccc(O)cc2)NC1=O` (stereo not shown) [cyclo Tyr-Val, cyclo tyrosine-valine], the “secretion of IL-4” value in data set [1] (0.25 μM) was “inhibited”. Besides, the “secretion … by Th2 cells” value in data set [1] is given as “significantly inhibited”. Moreover, the IC50 in [1] (Mus musculus, 72 h, Th2 cells from BALB/c mice, read-out: IC50, inhibition of IL-4 secretion) stood at 26.4 nM. Further, in [1] (Mus musculus, 72 h, Th2 cells from BALB/c mice, read-out: IC90, inhibition of IL-4 secretion), the IC90 was 252 nM. The “IL-4 secretion, dose dependence” value in data set [1] (various concentrations, BALB/c Th2 cells) is listed as “inhibited IL-4 secretion in a dose-dependent manner”. In addition, the “OVA-induced AHR (airway resistance, Penh)” value in data set [2] was “inhibited OVA-induced AHR in a dose-dependent manner”. For the same compound, the IC50 in data set [3] (Mus musculus, 72 h, Th2 cells from C57BL/6J mice, read-out: IC50, inhibition of IL-4 secretion) came to 45.1 nM. Also, in data set [3] (Mus musculus, 72 h, Th2 cells from C57BL/6J mice, read-out: IC90, inhibition of IL-4 secretion), the IC90 was 357 nM. The “IL-4 secretion, dose dependence” value in data set [3] (various concentrations, C57BL/6J Th2 cells) is reported as “inhibited IL-4 secretion in a dose-dependent manner”. Further, the “secretion of IL-5” value in data set [4] is “inhibited”. Also, in [5], the AHR result is “significantly reduced”, the BALF eosinophil accumulation result was “significantly reduced” and the “BALF total cell count” value is on record as “significantly reduced”. In data set [6] (OVA-induced asthmatic mice), this compound showed an ALB of 2.737 ± 0.322 g/dL, an ALT of 26.673 ± 2.279 U/l, an AST of 69.718 ± 4.115 U/l and a BUN of 25.864 ± 2.638 mg/dL. In addition, in data set [6] (OVA-induced asthmatic mice), the CREA was 0.250 ± 0.078 mg/dL, the T-BIL is 26.508 ± 2.454 µg/dL and the UA turned out to be 2.690 ± 0.275 mg/dL. Besides, the “hepatic or renal functions” value in data set [6] (control and OVA-induced asthmatic mice) is recorded as “did not significantly affect”. In data set [6] (control mice), this compound displayed an ALB of 2.669 ± 0.480 g/dL, an ALT of 26.283 ± 2.813 U/l, an AST of 70.775 ± 3.056 U/l and a BUN of 26.588 ± 2.756 mg/dL. In data set [6] (control mice), this compound yielded a CREA of 0.236 ± 0.124 mg/dL, a T-BIL of 26.169 ± 3.536 µg/dL and a UA of 2.979 ± 0.412 mg/dL. Further, in data set [7] (inhalation), the AHR result was “reduced”, the BALF eosinophil accumulation entry is “reduced” and the “total BALF cell count” value is given as “reduced”. For the same compound, in [7] (intraperitoneal injection), the AHR entry is “reduced”, the BALF eosinophil accumulation entry is on record as “reduced” and the “total BALF cell count” value is on record as “reduced”. Also, in data set [7] (oral route), the AHR result was “reduced”, the BALF eosinophil accumulation entry is on record as “reduced” and the “total BALF cell count” value was “reduced”. For the same compound, the “cytotoxic effects on cultured Th2 cells (viability)” value in the data set on Th2 cells is “no cytotoxic effects”. Besides, the “secretion of IL-13” value in data set [8] is reported as “inhibited”. In data set [9], the “OVA-induced secretion of IL-4 in BALF” value is on record as “reduced”, the “OVA-induced secretion of IL-5 in BALF” value is reported as “reduced” and the “OVA-induced secretion of IL-13 in BALF” value is listed as “reduced”. Also, in data set [10], the “OVA-specific IgE production in sera” value is recorded as “dose-dependently reduces”, the “OVA-specific IgG1 production in sera” value is “dose-dependently reduces” and the “OVA-specific IgG2a production in sera” value is listed as “dose-dependently reduces”. Besides, in data set [11], the “OVA-induced cell infiltration in BALF (total cell count)” value is “reduced” and the “OVA-induced eosinophilia in BALF” value is given as “reduced”.
